Here are results for 22 compounds from patent US8957093B2, “N-biphenylmethylindole modulators of PPARG” (The Scripps Research Institute, priority 2011, dated 2015).

Like-named read-outs stand apart in the source and are kept apart here.

In experiment [1] the target is Gal-4-PPAR (human PPAR LBD fused to GAL4 DNA-binding domain) (Homo sapiens (Human), UniProt P37231). As to the kind of experiment: GAL4-PPARG LBD / UAS-luciferase transactivation assay in HEK 293T cells. Type of experiment: cell-based.
For a further experiment, the target named is GST-PPARG-LBD (Homo sapiens (Human), UniProt P37231). In words: Lanthascreen PPARG competitive binding assay (Invitrogen, TR-FRET). Conditions: Lanthascreen competitive binding; NA = not active; inc = incomplete curve; read-out: IC50 (nM) Lantha. In short, it runs like this:
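Values are fold change in 520 nm/490 nm FRET ratio relative to a 2% DMSO no-ligand control, excitation 340 nm. Compound dilutions starting at 10 μM competed against 5 nM Fluormone Pan-PPAR Green for GST-PPARG-LBD bound by 5 nM Tb anti-GST antibody. Incubation 2 h in the dark in assay buffer C, triplicate wells.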
A general note: In TR-FRET formats the signal depends on donor and acceptor labels being close together.

Setting [2] is: GAL4 transactivation, HEK 293T cells; NA = not active; read-out: EC50 (nM) GAL4.
Setting [3] is: HEK-293T, 18 h, read-out: % transactivation at 10 μM (GAL4).
Where [4] appears, read: HEK-293T, 18 h; read-out: % transactivation at 10 μM (GAL4).

Chain of Gal-4-PPAR (human PPAR LBD fused to GAL4 DNA-binding domain) (P37231 238-503): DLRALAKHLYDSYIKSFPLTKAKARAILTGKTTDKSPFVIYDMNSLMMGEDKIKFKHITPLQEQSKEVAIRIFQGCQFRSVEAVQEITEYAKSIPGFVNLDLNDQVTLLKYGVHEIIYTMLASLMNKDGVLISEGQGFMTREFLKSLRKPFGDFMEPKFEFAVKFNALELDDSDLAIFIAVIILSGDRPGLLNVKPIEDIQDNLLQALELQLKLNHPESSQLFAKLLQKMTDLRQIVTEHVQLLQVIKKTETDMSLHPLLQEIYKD
Chain of GST-PPARG-LBD (P37231 238-503): as above

The term EC50 denotes the concentration needed to bring the measured effect to its halfway point. The term IC50 denotes the concentration at which inhibition is half-maximal. Take `Cc1c(C)n(Cc2ccc(-c3ccccc3C(=O)O)cc2)c2ccc(C(=O)N[C@@H](C)c3ccccc3F)cc12` [Example 160, (S)-4′-((5-((1-(2-fluorophenyl)ethyl)carbamoyl)-2,3-dimethyl-1H-indol-1-yl)methyl)-[1,1′-biphenyl]-2-carboxylic acid]: the EC50 in experiment [1] (setting [2]) amounted to 383 nM. Besides, the activation at 10 µM in experiment [1] (setting [3]) came to 35%. In addition, the IC50 on GST-PPARG-LBD is 7 nM.
Take `COc1cccc([C@@H](C)NC(=O)c2ccc3c(c2)c(C)c(C)n3Cc2ccc(-c3ccccc3C(=O)O)cc2)c1` [Example 161, (R)-4′-((5-((1-(3-methoxyphenyl)ethyl)carbamoyl)-2,3-dimethyl-1H-indol-1-yl)methyl)-[1,1′-biphenyl]-2-carboxylic acid]: in experiment [1] (setting [2]), the EC50 was 55 nM. Besides, in experiment [1] (setting [4]), the activation at 10 µM is 30%. For the same compound, the IC50 on GST-PPARG-LBD was 2 nM.
As to `Cc1c(C)n(Cc2ccc(-c3ccccc3C(=O)O)cc2)c2ccc(C(=O)NCc3ccc(F)cc3F)cc12` [Example 164, 4′-((5-((2,4-difluorobenzyl)carbamoyl)-2,3-dimethyl-1H-indol-1-yl)methyl)-[1,1′-biphenyl]-2-carboxylic acid], in experiment [1] (setting [2]), the EC50 turned out to be 987 nM. Also, the activation at 10 µM in experiment [1] (setting [3]) was 30%. The IC50 at GST-PPARG-LBD came out at 19 nM.
On to `Cc1c(C)n(Cc2ccc(-c3ccccc3C(=O)O)cc2)c2ccc(C(=O)NCc3ccc(Cl)cc3C(F)(F)F)cc12` [Example 165, 4′-((5-((4-chloro-2-(trifluoromethyl)benzyl)carbamoyl)-2,3-dimethyl-1H-indol-1-yl)methyl)-[1,1′-biphenyl]-2-carboxylic acid], for which, in experiment [1] (setting [2]), the EC50 was found to be 507 nM. The activation at 10 µM in experiment [1] (setting [4]) came out at 15%. Also, on GST-PPARG-LBD, the IC50 is 2 nM.
For the compound `Cc1c(C)n(Cc2ccc(-c3ccccc3C(=O)O)cc2)c2ccc(C(=O)N[C@H](C)c3ccncc3)cc12` [Example 169, (R)-4′-((2,3-dimethyl-5-((1-(pyridin-4-yl)ethyl)carbamoyl)-1H-indol-1-yl)methyl)-[1,1′-biphenyl]-2-carboxylic acid], the EC50 in experiment [1] (setting [2]) came to 608 nM. For the same compound, the activation at 10 µM in experiment [1] (setting [4]) turned out to be 20%. Besides, the IC50 on GST-PPARG-LBD worked out at 11 nM.
As for `Cc1c(C)n(Cc2ccc(-c3ccccc3C(=O)O)cc2)c2ccc(C(=O)N[C@@H](C)c3cccc(F)c3Cl)cc12` [Example 170, (S)-4′-((5-((1-(2-chloro-3-fluorophenyl)ethyl)carbamoyl)-2,3-dimethyl-1H-indol-1-yl)methyl)-[1,1′-biphenyl]-2-carboxylic acid], in experiment [1] (setting [2]), the EC50 turned out to be 114 nM. The activation at 10 µM in experiment [1] (setting [3]) stood at 50%. Moreover, at GST-PPARG-LBD, the IC50 came to 4 nM.
For `Cc1c(C)n(Cc2ccc(-c3ccccc3C(=O)O)cc2)c2ccc(C(=O)N[C@H](C)c3cccc(Cl)c3Cl)cc12` [Example 171, (R)-4′-((5-((1-(2,3-dichlorophenyl)ethyl)carbamoyl)-2,3-dimethyl-1H-indol-1-yl)methyl)-[1,1′-biphenyl]-2-carboxylic acid], in experiment [1] (setting [2]), the EC50 was determined as 388 nM. Also, the activation at 10 µM in experiment [1] (setting [3]) amounted to 10%. The IC50 at GST-PPARG-LBD stood at 5 nM.
As for `Cc1c(C)n(Cc2ccc(-c3ccccc3C(=O)O)cc2)c2ccc(C(=O)N[C@@H](C)c3cc(C(F)(F)F)ccc3C(F)(F)F)cc12` [Example 172, (S)-4′-((5-((1-(2,5-bis(trifluoromethyl)phenyl)ethyl)carbamoyl)-2,3-dimethyl-1H-indol-1-yl)methyl)-[1,1′-biphenyl]-2-carboxylic acid], the EC50 in experiment [1] (setting [2]) amounted to 106 nM. Also, the activation at 10 µM in experiment [1] (setting [4]) was 8%. For the same compound, the IC50 on GST-PPARG-LBD worked out at 9 nM.
Regarding `Cc1c(C)n(Cc2ccc(-c3ccccc3C(=O)O)cc2)c2ccc(C(=O)N[C@H](C)c3cc(C(F)(F)F)ccc3C(F)(F)F)cc12` [Example 173, (R)-4′-((5-((1-(2,5-bis(trifluoromethyl)phenyl)ethyl)carbamoyl)-2,3-dimethyl-1H-indol-1-yl)methyl)-[1,1′-biphenyl]-2-carboxylic acid], in experiment [1] (setting [2]), the EC50 is 161 nM. Also, the activation at 10 µM in experiment [1] (setting [4]) stood at 1%. Besides, the IC50 at GST-PPARG-LBD amounted to 4 nM.
On the same counts, the results for `COc1ccccc1[C@H](C)NC(=O)c1ccc2c(c1)c(C)c(C)n2Cc1ccc(-c2ccccc2C(=O)O)cc1` [Example 175, (S)-4′-((5-((1-(2-methoxyphenyl)ethyl)carbamoyl)-2,3-dimethyl-1H-indol-1-yl)methyl)-[1,1′-biphenyl]-2-carboxylic acid] are 360 nM, 20% and 16 nM.
As for `Cc1c(C)n(Cc2ccc(-c3ccccc3C(=O)O)cc2)c2ccc(C(=O)NC(C)(C)c3ccc(Br)cc3)cc12` [Example 180, 4′-((5-((2-(4-bromophenyl)propan-2-yl)carbamoyl)-2,3-dimethyl-1H-indol-1-yl)methyl)-[1,1′-biphenyl]-2-carboxylic acid], the EC50 in experiment [1] (setting [2]) came out at 119 nM. Moreover, the activation at 10 µM in experiment [1] (setting [3]) was determined as 60%. In addition, the IC50 at GST-PPARG-LBD is 1 nM.
Regarding `Cc1c(C)n(Cc2ccc(-c3ccccc3C(=O)O)cc2)c2ccc(C(=O)N[C@H](C)c3ccnc4ccccc34)cc12` [Example 181, (R)-4′-((2,3-dimethyl-5-((1-(quinolin-4-yl)ethyl)carbamoyl)-1H-indol-1-yl)methyl)-[1,1′-biphenyl]-2-carboxylic acid], the EC50 in experiment [1] (setting [2]) amounted to 5240 nM. In addition, the activation at 10 µM in experiment [1] (setting [4]) came to 40%. Besides, the IC50 at GST-PPARG-LBD worked out at 512 nM.
For `Cc1c(C)n(Cc2ccc(-c3ccccc3-c3nnn[nH]3)cc2)c2ccc(C(=O)N[C@H](C)c3cccc(Br)c3)cc12` [Example 187, (R)-1-((2′-(1H-tetrazol-5-yl)-[1,1′-biphenyl]-4-yl)methyl)-N-(1-(3-bromophenyl)ethyl)-2,3-dimethyl-1H-indole-5-carboxamide], the EC50 in experiment [1] (setting [2]) turned out to be 5 nM. Further, the activation at 10 µM in experiment [1] (setting [4]) stood at 20%. Besides, on GST-PPARG-LBD, the concentration for half-maximal inhibition (IC50) is under 1 nM.
Consider `Cc1c(C)n(Cc2ccc(-c3ccccc3-c3nnn[nH]3)cc2)c2ccc(C(=O)N[C@@H](C)c3cccc(C4CC4)c3)cc12` [Example 188, (S)-1-((2′-(1H-tetrazol-5-yl)-[1,1′-biphenyl]-4-yl)methyl)-N-(1-(3-cyclopropylphenyl)ethyl)-2,3-dimethyl-1H-indole-5-carboxamide], for which the EC50 in experiment [1] (setting [2]) amounted to 3150 nM. Moreover, the activation at 10 µM in experiment [1] (setting [4]) stood at 20%. In addition, the IC50 at GST-PPARG-LBD was 10 nM.
On the same counts, the results for `CC[C@@H](NC(=O)c1ccc2c(ccn2Cc2ccccc2-c2ccc(C(=O)O)cc2)c1)c1ccccc1` [Example 190, (R)-2′-((5-((1-phenylpropyl)carbamoyl)-1H-indol-1-yl)methyl)-[1,1′-biphenyl]-4-carboxylic acid] are 51 nM, 45% and 5 nM.
`CC[C@H](NC(=O)c1ccc2c(ccn2Cc2ccccc2-c2cccc(C(=O)O)c2)c1)c1ccccc1` [Example 191, (S)-2′-((5-((1-phenylpropyl)carbamoyl)-1H-indol-1-yl)methyl)-[1,1′-biphenyl]-3-carboxylic acid]: in experiment [1] (setting [2]), the EC50 was found to be 1000 nM. Further, the activation at 10 µM in experiment [1] (setting [4]) came to 20%. Further, at GST-PPARG-LBD, the IC50 amounted to 80 nM.
With `CC[C@@H](NC(=O)c1ccc2c(ccn2Cc2ccccc2-c2cccc(C(=O)O)c2)c1)c1ccccc1` [Example 192, (R)-2′-((5-((1-phenylpropyl)carbamoyl)-1H-indol-1-yl)methyl)-[1,1′-biphenyl]-3-carboxylic acid], the EC50 in experiment [1] (setting [2]) was 27 nM. For the same compound, the activation at 10 µM in experiment [1] (setting [4]) came out at 40%. Besides, at GST-PPARG-LBD, the IC50 stood at 4 nM.
For `COc1ccc([C@H](C)NC(=O)c2ccc3c(c2)c(C)c(C)n3Cc2ccc(-c3ccccc3C(=O)O)cc2)cc1Cl` [Example 197, (S)-4′-((5-((1-(3-chloro-4-methoxyphenyl)ethyl)carbamoyl)-2,3-dimethyl-1H-indol-1-yl)methyl)-[1,1′-biphenyl]-2-carboxylic acid], in that order: 1630 nM, 20% and 17 nM.
On the same counts, the results for `Cc1c(C)n(Cc2ccc(-c3ccccc3C(=O)O)cc2)c2ccc(C(=O)N[C@@H](C)C3CCN(C(=O)OCc4ccccc4)CC3)cc12` [Example 202, (S)-4′-((5-((1-(1-((benzyloxy)carbonyl)piperidin-4-yl)ethyl)carbamoyl)-2,3-dimethyl-1H-indol-1-yl)methyl)-[1,1′-biphenyl]-2-carboxylic acid] are 1750 nM, 40% and 35 nM.
Take `COc1ccc(F)cc1[C@@H](C)NC(=O)c1ccc2c(c1)c(C)c(C)n2Cc1ccc(-c2ccccc2C(=O)O)cc1` [Example 205, (R)-4′-((5-((1-(5-fluoro-2-methoxyphenyl)ethyl)carbamoyl)-2,3-dimethyl-1H-indol-1-yl)methyl)-[1,1′-biphenyl]-2-carboxylic acid]: the EC50 in experiment [1] (setting [2]) came to 637 nM. Moreover, the activation at 10 µM in experiment [1] (setting [4]) was found to be 20%. In addition, on GST-PPARG-LBD, the IC50 came out at 5 nM.
On the same counts, the results for `COc1ccc(F)cc1[C@H](C)NC(=O)c1ccc2c(c1)c(C)c(C)n2Cc1ccc(-c2ccccc2C(=O)O)cc1` [Example 206, (S)-4′-((5-((1-(5-fluoro-2-methoxyphenyl)ethyl)carbamoyl)-2,3-dimethyl-1H-indol-1-yl)methyl)-[1,1′-biphenyl]-2-carboxylic acid] are 405 nM, 20% and 26 nM.
For `Cc1c(C)n(Cc2ccc(-c3ccccc3C(=O)O)cc2)c2ccc(C(=O)N[C@H](C)c3ccccc3C(F)(F)F)cc12` [Example 207, (R)-4′-((2,3-dimethyl-5-((1-(2-(trifluoromethyl)phenyl)ethyl)carbamoyl)-1H-indol-1-yl)methyl)-[1,1′-biphenyl]-2-carboxylic acid], in that order: 629 nM, 20% and 1 nM.
